We go through one compound from patent publication US20030180399A1, “Therapeutic/edible compositions comprising herbal ingredients and methods for treating hyperglycemia” (COUNCIL OF SCIENTIFIC & INDUSTRIAL RESEARCH, priority 2002, published 2003).

In assay [1] the test system is STZ induced diabetic model. The experiment in a line: Plasma glucose level in streptozocin (STZ) induced diabetic rats, 15 days treatment. The format is in vivo, Male albino rats of wistar strains. Conditions: n=6, glibenclamide 3 mg/Kg. As for the experimental part: Male albino rats of wistar strains (150-200 g) were used throughout the studies. Rats were divided into eleven groups of each containing 6 rats. These animals were randomly assigned to the following groups which include (A) control group, (B) standard group (glibenclamide, 3 mg/Kg) and (C) test groups (F1-F9). Diabetes was induced by injecting streptozocin (STZ) in a dose of 65 mg/kg intra venous in 0.1M citrate buffer. Rats were kept fasted overnight but were given water ad libitum. After 48 hours of STZ injection, blood samples were taken from tail vein of conscious rats. The blood was centrifuged at 5000 rpm for 10 minutes in an eppendorf tubes containing EDTA (1 mg/ml of blood). Plasma glucose estimations were done by glucose oxidase method by using Auto blood analyzer (Techinicon RA-100, Bayer Diagnostics, Ireland). Animals with blood glucose level more than 250% of the fasting level were considered to be diabetic and were used for the experiment. Group A was given normal saline, group B was given glibenclamide and various groups of C were given herbal compositions for 15 days at least once in day. Blood was collected from tail veins of all the rats after 7 days and 15 days of treatment and glucose levels were estimated as described previously (Table 2). The statistical analysis was performed using Prism program (Graphpad software). […]

In assay [2] the test system is oral glucose tolerance in rats. Briefly: Glucose Tolerance Test (GTT) in rats. It counts as in vivo, Male albino rats of wistar strains. Conditions: rats loaded with glucose 5 g/kg 2 hours after dosing; P<0.05; glibenclamide 3 mg/Kg. From the text: Brief description of the accompanying drawings: Figure-1. Describes the effect of herbal formulation and glibenclamide on oral glucose tolerance tests in rats. From the above STZ induced diabetic model the composition 1 has chosen for GTT study. Male albino rats of wistar strains (150-200 g) were used. They were divided into three groups each containing 6 rats. They were randomly assigned A) control group B) standard group (glibenclamide) C) test group. Group A was given saline, group B was given glibenclamide (3 mg/Kg) and group C was given test compositions. After 2 hours all rats were loaded with glucose with a dose of 5 g/kg. Blood samples were taken from tail vein of conscious rats for every 30 minutes up to 3 hours. Plasma glucose estimations were done by glucose oxidase method by using Auto Blood Analyzer as described in FIG. 1. The statistical analysis was performed using Prism program (Graphpad software). Annova with post Newman—Keul test with P values was used to compare the treatment efficacy between the test groups.

Structures are written as SMILES.

`COc1ccc(Cl)cc1C(=O)NCCc1ccc(S(=O)(=O)NC(=O)NC2CCCCC2)cc1` [Glibenclamide]: the “% reduction in glucose levels” value in assay [1] (Day 7th of treatment) was found to be 27 ± 2.6%; in assay [1] (Day 15th of treatment) it was 38 ± 2.9%. Also, in assay [2], the “glucose tolerance compared to control group” value is given as “increased”.
